What all share (format): functional
Assay [1] concerns Rattus norvegicus. Put plainly: Antiimplantation activity against Sprague-Dawley albino rat at 5 mg/kg, po administered for 1-5 days measured on day 10 of pregnancy relative to control.
Assay [2] has as its system Rattus norvegicus. Put plainly: Antiimplantation activity against Sprague-Dawley albino rat at 2 mg/kg, po administered for 1-5 days measured on day 10 of pregnancy relative to control.
Assay [3] deals with Rattus norvegicus. Kind of assay: Antiimplantation activity against Sprague-Dawley albino rat at 10 mg/kg, po administered for 1-5 days measured on day 10 of pregnancy relative to control.
Assay [4] has as its system Rattus norvegicus. Put plainly: Antiimplantation activity against Sprague-Dawley albino rat at 1 mg/kg, po administered for 1-5 days measured on day 10 of pregnancy relative to control.
The subject of assay [5] is Rattus norvegicus. Put plainly: Antiimplantation activity against Sprague-Dawley albino rat at 1.5 mg/kg, po administered for 1-5 days measured on day 10 of pregnancy relative to control.
Assay [6] has as its system Rattus norvegicus. Put plainly: Antiimplantation activity against Sprague-Dawley albino rat at 1.25 mg/kg, po administered for 1-5 days measured on day 10 of pregnancy relative to control.
The test system of assay [7] is Rattus norvegicus. Put plainly: Antiimplantation activity against Sprague-Dawley albino rat at 2.5 mg/kg, po administered for 1-5 days measured on day 10 of pregnancy relative to control.

From ChEMBL document CHEMBL1157523, “Synthesis and in vivo evaluation of 11-substituted estradiol derivatives as anti-implantation agents” (2008) come the findings set out here.

Structures are written as SMILES. Activity calls are given as the source filed them. No cut-off for these calls is given here.

In the case of `COc1ccc2c(c1)CCC1=C2C(C)(O)C[C@]2(C)[C@@H](O)CC[C@@H]12` (stereo partly specified), the Activity in the assay with Rattus norvegicus [1], with Rattus norvegicus [2] and in the assay on Rattus norvegicus [3] was 100% in each case.

Regarding `COc1ccc2c(c1)CCC1=C2C(O)(Cc2ccccc2)C[C@]2(C)[C@@H](O)CC[C@@H]12` (stereo partly specified), in the assay on Rattus norvegicus [3], the Activity worked out at 100%.

As to `C=CCC1=C[C@]2(C)[C@@H](O)CC[C@H]2C2=C1c1ccc(OC)cc1CC2`, in the assay with Rattus norvegicus [3], the Activity amounted to 100%.

Turning to `COc1ccc2c(c1)OC(C)(C)C(c1ccccc1)C2c1ccc(OCCN2CCCC2)cc1` (stereo unspecified) [ORMELOXIFENE], the Activity in the assay on Rattus norvegicus [4] and in the assay with Rattus norvegicus [3] was 100% throughout.

As for `C=CCC1(O)C[C@]2(C)[C@@H](O)CC[C@H]2C2=C1c1ccc(OC)cc1CC2` (stereo partly specified), the Activity is on record as 100% with Rattus norvegicus [1]; 100% in the assay with Rattus norvegicus [2]; 60% in the assay with Rattus norvegicus [4]; 60% in the assay with Rattus norvegicus [5]; 100% in the assay on Rattus norvegicus [3].

As to `COc1ccc2c(c1)CCC1=C2C(=O)C[C@]2(C)[C@@H](O)CC[C@@H]12`, the Activity in the assay on Rattus norvegicus [1] and in the assay on Rattus norvegicus [3] was 100% each time. Moreover, the outcome with Rattus norvegicus [2] was inactive.

In the assay with Rattus norvegicus [3], `C=CCC1(O)C[C@]2(C)[C@@H](OC(C)=O)CC[C@H]2C2=C1c1ccc(OC)cc1CC2` (stereo partly specified) returned an Activity of 100%.

For the compound `CCC1(O)C[C@]2(C)[C@@H](O)CC[C@H]2C2=C1c1ccc(OC)cc1CC2` (stereo partly specified), the Activity in the assay on Rattus norvegicus [1] is on record as 100%; in the assay on Rattus norvegicus [4], 50%; in the assay with Rattus norvegicus [3], 100%; with Rattus norvegicus [6], 100%; in the assay with Rattus norvegicus [7] it was 100%.
